Series [1] relates to MDA-MB-231 human breast cancer cells. The series can be described thus: 7 day colony formation assay, chemotherapy with or without KBU2046. The class given is cell-based. The protocol: To assess the impact of cytotoxic chemotherapy on PCa growth kinetics seven-day soft agar colony formation assays and three-day MTT cell growth inhibition assays were performed as described by us ([…] et al., Cancer Lett 352, 179-186 (2014)). MTT assays were in replicates of N=3, and were repeated, soft agar assays were in replicates of N=2 and are presented as mean number of colonies, expressed as percent of untreated controls. For PC3-M PCa and MDA-MB-231 triple negative breast cancer cells, data are the mean±SD (N=2 replicates) number of colonies in 7 day colony formation assays. All data are expressed as the percentage of untreated control cells. Cells were treated with 10 μM KBU2046 or vehicle (CO), and the indicated concentration and type of chemotherapy.

Series [2] concerns prostate specific antigen (PSA). The series can be described thus: PSA expression by qRT/PCR in LNCaP cells. The class given is cell-based, human. The note with it: LNCaP cells in androgen depleted media. The protocol: Cells were cultured in media depleted of androgen and after a washout of 72 hrs were treated with the synthetic androgen R1881, KBU2046, enzalutamide and/or vehicle (control), and resultant effects upon induction of the androgen-responsive gene, prostate specific antigen (PSA) were measured (FIG. 3A).
(§1) LNCaP or VCaP cells cultured in hormone free media were treated with R1881 (R), KBU2046 (46) and/or enzalutamide (E). (FIGS. 3A and 3B) Effects on AR-responsive gene expression. PSA expression was measured by qRT/PCR, normalized to GAPDH and expressed as a percent of control cells (N=3 replicates); * denotes P<0.05 for groups separated by bar. (FIGS. 3C and 3D) Effects on cell growth. Three day growth assays were performed. Data are the number of viable cells, expressed as % of control (N=3 replicates); * P<0.05 compared to control. (E) Effects on AR activation. Western blots of nuclear (N) and cytoplasmic (C) preparations of cell extracts were probed for AR, laminin 1 or α-tubulin. (FIGS. 3F and 3G) Effects on tumor outgrowth after androgen deprivation therapy. LNCaP/AR-luc cells were implanted subcutaneously (N=6 mice/cohort) or orthotopic (N=15 mice/cohort were implanted; N=5 yielded tumors) into castrate mice, treatment with KBU2046 began as noted, and weekly IVIS imaging performed. Data are tumor size, expressed as luminescence intensity. All data are expressed as mean±SEM.
RNA was isolated and qRT/PCR performed as previously described by us (Ding et al., J Biomol Tech 18, 321-330 (2007)). Resultant data were analyzed using the 2^−ΔΔt method (Livak et al., Methods 25, 402-408 (2001)), normalized to GAPDH, for the following primer/probe sets (ABI) PSA (Hs02576345_m1) and GAPDH (Hs99999905_m1). Assays were performed in triplicate, and were repeated.

A further series has as its system MEK1/2 and ERK1/2. The series can be described thus: Western blot of MEK1/2 and ERK1/2 phosphorylation in RANKL treated osteoclast cells. The following applies: 10 μM KBU2046, RANKL treated RAW 267.4 cells. The class given is cell-based, mouse. (A western blot detects proteins with antibodies after separation by electrophoresis.)
The next series deals with PC3-luc cells. The series can be described thus: PCa intracardiac injection model, bone destruction by CT and survival. The note with it: oral 150 mg KBU2046/kg daily; intraperitoneal ZA 100 μg/kg weekly; CT. It counts as in vivo, mice.
In a further series the test system is PC3-M cells. The series can be described thus: three-day MTT cell growth assay, chemotherapy with or without KBU2046. The class given is cell-based, human. The note with it: 10 μM KBU2046, 3 day growth assay, androgen independent PC3-M cells. The protocol:
FIG. 1A depicts the effect of chemotherapy on the growth of androgen independent PC3-M PCa cells in vitro. Data are the mean±SEM (N=3 replicates) of cell viability in a 3 day growth assay in the presence of 10 μM KBU2046 or vehicle (control) treated with docetaxel or cabazitaxel. FIG. 1B depicts the effect of chemotherapy on the growth of androgen independent PCa cells in vivo. Mice received subcutaneous implants of PC3-M cells, were monitored until tumors were detectable (250 mm^3), and then treated daily with oral 80 mg KBU2046/kg (46) or vehicle (CO) and with weekly intraperitoneal docetaxel (doc) at 0 or 20 mg/kg, beginning on day 1, and tumor size measured. Data are mean±SEM, with N=20 mice per cohort.
To assess the impact of cytotoxic chemotherapy on PCa growth kinetics seven-day soft agar colony formation assays and three-day MTT cell growth inhibition assays were performed as described by us (Pavese et al., Cancer Lett 352, 179-186 (2014)). MTT assays were in replicates of N=3, and were repeated, soft agar assays were in replicates of N=2 and are presented as mean number of colonies, expressed as percent of untreated controls.

Another series deals with LNCaP cells. The series can be described thus: SRB growth inhibition assay, LNCaP. The following applies: 10 μM enzalutamide, 10 μM KBU2046 added to control or enzalutamide treated cells, 72 hours. The class given is cell-based, human. The protocol:
as §1
Enzalutamide mediated growth inhibition was assessed using Sulforhodamine B (SRB) growth inhibition assays, were performed as previously described (49). In brief, LNCaP and VCaP cells were pre-incubated in charcoal-striped medium for 48 hours and then seeded (1.9×10^4) in 96-well plates. […]

Take `O=C1c2ccccc2OCC1c1ccc(F)cc1` (stereo not shown) [KBU2046, 3-(4-fluorophenyl)chroman-4-one]: in series [1] (10 μM KBU2046, MDA-MB-231 cells, FIG. 13), the “effect on activity of adriamycin” value is “does not inhibit”. For the same compound, the “effect on activity of vinblastine” value in series [1] (10 μM KBU2046, MDA-MB-231 cells, FIG. 15) is reported as “does not inhibit”. Also, the “effect on activity of taxol” value in series [1] (10 μM KBU2046, MDA-MB-231 cells, FIG. 17) was “does not inhibit”. For the same compound, the “interference upon cytotoxic action of adriamycin, taxol and vinblastine” value in series [1] (KBU2046 co-administered, MDA-MB-231 cells) is given as “lack of interference”. In addition, the PSA expression entry in series [2] is recorded as “no significant effect”. Moreover, the “MEK1/2 and ERK1/2 phosphorylation” value in the series on MEK1/2 and ERK1/2 was “inhibition”. Besides, in the series with PC3-luc cells, the “improvement of femur bone density compared to control” value was determined as 22±2.4% and the “inhibition of bone destruction in the mandible compared to control” value came to 33±4.2%. The “effect of KBU2046 on the ability of docetaxel or cabazitaxel to inhibit cell growth” value in the series with PC3-M cells is “did not affect”. For the same compound, the cell growth entry in the series on LNCaP cells is recorded as “no significant effect”.

These data come from US20220133894A1, “BISPHOSPHONATE-LINKED COMPOUNDS” (OREGON HEALTH & SCIENCE UNIVERSITY, priority 2019, published 2022).
